Results: PubChem BioAssay (NCI)
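Following 48 hours of exposure in 96-well plates, responses at five concentrations were used to interpolate endpoints linearly. TGI: total growth inhibition.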 Where a SMILES comes first, the peptide text is derived from it.

Legend:
Assay in all cases: inhibition of tumour cell growth, NCI panel, 48 h
[1] = test system: HT29 colon
[2] = test system: UACC-257 melanoma
[3] = test system: CAKI-1 renal
[4] = test system: SN12C renal
[5] = test system: SK-OV-3 ovarian
[6] = test system: HCT-15 colon
[7] = test system: T-47D breast
[8] = test system: K-562 leukemia
[9] = test system: UO-31 renal
[10] = test system: UACC-62 melanoma

Compound | TGI [1] [µM] | TGI [2] [µM] | TGI [3] [µM] | TGI [4] [µM] | TGI [5] [µM] | TGI [6] [µM] | TGI [7] [µM] | TGI [8] [µM] | TGI [9] [µM] | TGI [10] [µM]
O=C1CC2(CCC(O)(c3cccs3)C(C(=O)c3cccs3)C2)C(=O)c2ccccc2N1 (stereo not drawn) | > 100 | > 100 | > 100 | > 100 | > 100 | > 100 | > 100 | > 100 | > 100 | > 100
COc1ccc(C2c3cc4c(cc3OC(O)(CO)C2C(=O)O)OCO4)cc1 (stereo not drawn) (tested in a mixture with another compound) | 52.4 | 50.8 |  | 54.1 | 98.5 | 35.6 |  | 40.2 | > 100 | 36.4
COC(OC)C1OC(CO)C(n2cc(F)c(=O)[nH]c2=O)C1O (stereo not drawn) | > 100 | > 100 | > 100 | > 100 | > 100 | > 100 | > 100 | > 100 | > 100 | > 100
CC(=O)c1ccc2c(c1)N(CCCN1CCN(CCO)CC1)c1ccccc1C2 | 22.4 | 18.9 | 26.9 | 31.2 | 30.5 | 28.8 | 25.9 | 30.1 | 38.9 | 23
CC(=O)Oc1ccc(CO)cc1OC(C)=O | > 100 | > 100 | > 100 | > 100 | > 100 | > 100 |  | > 100 | > 100 | > 100
COc1cc2c(cc1OCCCCCCCCN1C(=O)c3cccc4cccc(c34)C1=O)N=C[C@@H]1CCCN1C2=O | 36.2 | 68.8 | 52.6 | 63.9 | 9.72 | 32.7 | > 100 | 23.1 | > 100 | 28.4
O=c1[nH]c(Nc2ccc(Cl)cc2)nc2nc[nH]c12 | > 100 | > 100 | > 100 | > 100 | > 100 | > 100 | > 100 |  |  | > 100
O=C(O)C(O)C(O)C(O)C(=O)CO (stereo not drawn) | > 100 | > 100 | > 100 | > 100 | > 100 | > 100 | > 100 | > 100 | > 100 | > 100
COC(=O)C1=C(O)CCCC(CCC(C)=O)=C1 | > 100 | > 100 | > 100 | > 100 | > 100 | > 100 | > 100 | > 100 | > 100 | > 100
Nc1cc(-c2ccc(Cl)cc2)nn1-c1nc2ccccc2nc1-c1ccccc1 | > 100 | > 100 | > 100 | > 100 | > 100 | > 100 | > 100 | > 100 |  | > 100
COC(=S)OC1CC(n2cnc3c(N)ncnc32)OC1CO[Si](C)(C)C(C)(C)C (stereo not drawn) | 30.1 | 72.8 |  | 48.6 | 60.1 | 49.8 | 88.8 | > 100 | 40.8 | 24
N#Cc1c(N)nc2c(c1-c1ccc(Br)cc1)CSc1ccccc1-2 | > 100 | 72.5 | 68 | > 100 | > 100 | > 100 | 58.2 | > 100 | > 100 | 78.1
C1=CC(=[N+]2N=C(c3ccccc3)CC2c2ccccc2)C=CC1=C1SC(c2ccccc2)(c2ccccc2)c2ccccc21 (stereo not drawn) | > 100 |  |  | > 100 | > 100 | > 100 | > 100 | > 100 | > 100 | > 100
C/C(N=Nc1nc2ccccc2[nH]1)=C1/C=CC=CN1O | > 100 | > 100 | > 100 | > 100 | > 100 | > 100 | > 100 | > 100 | > 100 | > 100
CCC(C)C(NC(=O)C1CCCN1C(=O)C(CC(C)C)NC(=O)C(CC(C)C)NC(=O)C(N)CC(C)C)C(=O)NC(C(=O)NCC(=O)NC(CC(N)=O)C(=O)NC(CC(C)C)C(=O)NC(CC(C)C)C(=O)NC(CC(C)C)C(N)=O)C(C)C (stereo not drawn) (H-LLLPIVGNLLL-NH2; configuration not given here) | > 50 | > 50 | > 50 | > 50 | > 50 | > 50 | > 50 |  | > 50 | > 50
CSCCC(NC(=O)OCc1ccccc1)P(=O)(O)c1ccccc1 (stereo not drawn) | > 100 | > 100 | > 100 | > 100 | > 100 | > 100 | > 100 | > 100 | > 100 | 
CCOC(=O)C(=O)NCCCN1CCOCC1 | > 100 | > 100 | > 100 | > 100 | > 100 | > 100 |  | > 100 | > 100 | > 100
